Results published in patent US20060116397A1, “Use of saquinavir as a radiation sensitizer” (The Trustees of the University of Pennsylvania, priority 2004, published 2006).
“Also recorded” adds a separate entry of the source.

Experiments:
Akt [1] = assay: Western blot analysis of Akt phosphorylation in SQ2OB head-and-neck cancer cell line; type: cell-based, human; details: SQ2OB cells, 25 μM saquinavir, within 20 minutes, Western blot (FIG. 3)
Excerpt: Using Western blot analysis, a human head-and-neck cancer cell line, SQ2OB, containing a constitutively-active EGFR receptor and thus, increased signaling through PI3K, was examined for Akt phosphorylation.

cells in tissue culture = assay: Toxicity to cells in tissue culture; type: cell-based
T24 cells = assay: Clonogenic assay, radiation sensitization (surviving fraction after 2 Gy); type: cell-based
Method: Cultures of cells in log growth phase were counted and plated in 60-mm dishes containing 4 ml of media. The cells were allowed to attach and saquinavir was added to cultures at least one hour prior to irradiation. Cells were irradiated with a Mark I cesium irradiator (J. L. Shepherd, San Fernando, Calif.) at a dose rate of 1.6 Gy/min. Colonies were stained and counted 10-14 days after irradiation. A light box was used to assist in counting colonies. The surviving fraction was calculated by dividing the number of colonies formed by the number of cells plated times plating efficiency (Table 1). Each point value represents the mean surviving fraction from at least six replicate dishes.

Akt [2] = assay: Western blot of Akt phosphorylation in white blood cells of HIV patients; type: in vivo, human; details: HIV patients taking saquinavir vs HIV patients not using saquinavir
Excerpt: As a proof of principle, it was examined whether there was down-regulation of Akt in HIV patients who are being actively treated with HPIs. Blood samples were obtained from HIV patients on courses of various combinations of drugs. WBCs were isolated and stained for Akt using a Western Blot.

SMILES: CC(C)(C)NC(=O)[C@@H]1C[C@@H]2CCCC[C@@H]2CN1C[C@@H](O)[C@H](Cc1ccccc1)NC(=O)[C@H](CC(N)=O)NC(=O)c1ccc2ccccc2n1 [saquinavir]
- Akt phosphorylation at Ser 473 and at Thr 308 (Akt [1]): down-regulation of Akt phosphorylation at Ser 473 and at Thr 308
- toxicity to cells in tissue culture (cells in tissue culture): toxic to cells in tissue culture
- difference in cell kill (enhanced kill) vs radiation alone (T24 cells; T24, 30 fractions of 2 Gy): ~5 log
- surviving fraction after 2 Gy (SF2) (T24 cells; T24 cells, 10 μM saquinavir + 2 Gy radiation, control 56%): 36%
- saquinavir SF2 (T24 cells; T24 cells, saquinavir added at least one hour prior to irradiation, colonies counted 10-14 days after, mean of at least six dishes, control 0.560 +/− 0.061): 0.380 +/− 0.168
- Akt phosphorylation in white blood cells (Akt [2]): decreased Akt phosphorylation; also recorded: lower levels of Akt phosphorylation
